This is an account of results in patent publication US12338220B2, “Antiviral pyrazolopiridinone compounds” (Novartis AG, priority 2019, dated 2025).

Like-named read-outs stand apart in the source and are kept apart here.

Assay [1] deals with CMV. Kind of assay: microbe, parasite or virus in culture. It counts as cell-based.
Assay [2] addresses CMV-polymerase (Human cytomegalovirus (strain AD169) (HHV-5) (Human herpesvirus 5), UniProt P08546). Kind of assay: biochemical. The settings on record: read-out: CMV-polymerase Biochemical IC50.
Setting [3] is: Human betaherpesvirus 5, 72 h, read-out: CMV-Luc Cellular EC50, NN-NHDF cells, MOI 1, 72 hrs.
Where [4] appears, read: NN-NHDF cells, MOI 1, 72 hrs, read-out: CMV-Luc Cellular EC50.

For orientation: EC50 means the concentration at which the effect is half-maximal. Turning to `CN(C(C)(CO)CO)S(=O)(=O)C1(CN2CCc3c(C(=O)NCc4ccc(Cl)cc4)nn(C)c3C2=O)CC1` [Example 154, N-(4-chlorobenzyl)-6-((1-(N-(1,3-dihydroxy-2-methylpropan-2-yl)-N-methylsulfamoyl)cyclopropyl)methyl)-1-methyl-7-oxo-4,5,6,7-tetrahydro-1H-pyrazolo[3,4-c]pyridine-3-carboxamide], the EC50 in assay [1] (setting [3]) is 83 nM. On to `Cn1nc(C(=O)NCc2ccc(Cl)cc2)c2c1C(=O)N(CC1(S(=O)(=O)C(C)(CN)CO)CC1)CC2` (centres unmarked) [Example 186, 6-((1-((1-Amino-3-hydroxy-2-methylpropan-2-yl)sulfonyl)cyclopropyl)methyl)-N-(4-chlorobenzyl)-1-methyl-7-oxo-4,5,6,7-tetrahydro-1H-pyrazolo[3,4-c]pyridine-3-carboxamide], for which the EC50 in assay [1] (Human betaherpesvirus 5, 72 h, NN-NHDF cells, MOI 1, 72 hrs, read-out: CMV-Luc Cellular EC50) turned out to be 90 nM. The IC50 is the point on the concentration scale where inhibition reaches its midpoint. Consider `Cn1nc(C(=O)NCc2ccc(C#N)cc2)c2c1C(=O)N(CC1(S(=O)(=O)N3CCC(C)(O)C3)CC1)CC2` (single isomer, unassigned) [Example 131, (R)- or (S)-N-(4-Cyanobenzyl)-6-((1-((3-hydroxy-3-methylpyrrolidin-1-yl)sulfonyl)cyclopropyl)methyl)-1-methyl-7-oxo-4,5,6,7-tetrahydro-1H-pyrazolo[3,4-c]pyridine-3-carboxamide], for which the IC50 in assay [2] is 16 nM. Consider `CC(N)COCC(C)(C)S(=O)(=O)C1(CN2CCc3c(C(=O)NCc4ccc(Cl)cc4)nn(C)c3C2=O)CC1` (single isomer, unassigned) [Example 97, (R)- or (S)-6-((1-((1-(2-Aminopropoxy)-2-methylpropan-2-yl)sulfonyl)cyclopropyl)methyl)-N-(4-chlorobenzyl)-1-methyl-7-oxo-4,5,6,7-tetrahydro-1H-pyrazolo[3,4-c]pyridine-3-carboxamide], for which the EC50 in assay [1] (setting [3]) was determined as 8 nM. Still for that read-out and setting: the result for `CN(C)CC(O)C(C)(C)S(=O)(=O)C1(CN2CCc3c(C(=O)NCc4ccc(Cl)cc4)nn(C)c3C2=O)CC1` (single isomer, unassigned) [Example 206, (R)- or (S)-N-(4-Chlorobenzyl)-6-((1-((4-(dimethylamino)-3-hydroxy-2-methylbutan-2-yl)sulfonyl)cyclopropyl)methyl)-1-methyl-7-oxo-4,5,6,7-tetrahydro-1H-pyrazolo[3,4-c]pyridine-3-carboxamide] reads 71 nM. Same read-out and setting: the result for `CNCC(O)C(C)(C)S(=O)(=O)C1(CN2CCc3c(C(=O)NCc4ccc(Cl)cc4)nn(C)c3C2=O)CC1` (single isomer, unassigned) [Example 204, (R)- or (S)-N-(4-Chlorobenzyl)-6-((1-((3-hydroxy-2-methyl-4-(methylamino)butan-2-yl)sulfonyl)cyclopropyl)methyl)-1-methyl-7-oxo-4,5,6,7-tetrahydro-1 H-pyrazolo[3,4-c]pyridine-3-carboxamide] reads 11 nM; that for `CNCC(O)C(C)(C)S(=O)(=O)C1(CN2CCc3c(C(=O)NCc4ccc(C#N)cc4)nn(C)c3C2=O)CC1` (single isomer, unassigned) [Example 202, (R)- or (S)-N-(4-Cyanobenzyl)-6-((1-((3-hydroxy-2-methyl-4-(methylamino)butan-2-yl)sulfonyl)cyclopropyl)methyl)-1-methyl-7-oxo-4,5,6,7-tetrahydro-1 H-pyrazolo[3,4-c]pyridine-3-carboxamide], 30 nM. On the same count and under the same terms, the result for `Cn1nc(C(=O)OCc2ccc(C#N)cc2)c2c1C(=O)N(CC1(S(=O)(=O)C3CC3)CC1)CC2` [Example 24, 4-cyanobenzyl 6-((1-(cyclopropylsulfonyl)cyclopropyl)methyl)-1-methyl-7-oxo-4,5,6,7-tetrahydro-1H-pyrazolo[3,4-c]pyridine-3-carboxylate] reads 197 nM. For the molecule `CC(N)COCC(C)(C)S(=O)(=O)C1(CN2CCc3c(C(=O)NCc4ccc(C#N)cc4)nn(C)c3C2=O)CC1` (single isomer, unassigned) [Example 99, (R)- or (S)-6-((1-((1-(2-Aminopropoxy)-2-methylpropan-2-yl)sulfonyl)cyclopropyl)methyl)-N-(4-cyanobenzyl)-1-methyl-7-oxo-4,5,6,7-tetrahydro-1H-pyrazolo[3,4-c]pyridine-3-carboxamide], the concentration for a half-maximal effect (EC50) in assay [1] (setting [3]) stood at 14 nM.

For the molecule `N#Cc1ccc(CNC(=O)c2n[nH]c3c2CCN(CC2(S(=O)(=O)C4CC4)CC2)C3=O)cc1` [Example 45, N-(4-Cyanobenzyl)-6-((1-(cyclopropylsulfonyl)cyclopropyl)methyl)-7-oxo-4,5,6,7-tetrahydro-1H-pyrazolo[3,4-c]pyridine-3-carboxamide], the EC50 in assay [1] (setting [4]) turned out to be 146 nM. Take `Cn1nc(C(=O)NCc2ccc(C#N)cc2)c2c1C(=O)N(CC1(S(=O)(=O)C(C)(C)C(O)CN)CC1)CC2` (single isomer, unassigned) [Example 199, (R)- or (S)-6-((1-((4-Amino-3-hydroxy-2-methylbutan-2-yl)sulfonyl)cyclopropyl)methyl)-N-(4-cyanobenzyl)-1-methyl-7-oxo-4,5,6,7-tetrahydro-1H-pyrazolo[3,4-c]pyridine-3-carboxamide]: the EC50 worked out at 19 nM in assay [1] (setting [3]) and 18 nM in assay [1] (Human betaherpesvirus 5, read-out: Cellular activity against CMV (EC50), Table 18). As to `Cn1nc(C(=O)NCc2ccc(C#N)cc2)c2c1C(=O)N(CC1(S(=O)(=O)C3CCOC3)CC1)CC2` (single isomer, unassigned) [Example 170, (R)- or (S)-N-(4-Cyanobenzyl)-1-methyl-7-oxo-6-((1-((tetrahydrofuran-3-yl)sulfonyl)cyclopropyl)methyl)-4,5,6,7-tetrahydro-1H-pyrazolo[3,4-c]pyridine-3-carboxamide], the EC50 in assay [1] (setting [3]) was 124 nM. Turning to `Cn1nc(C(=O)NCc2ccc(C#N)cc2)c2c1C(=O)N(CC1(S(=O)(=O)C(C)(CN)CO)CC1)CC2` (single isomer, unassigned) [Example 184, (R)- or (S)-6-((1-((1-Amino-3-hydroxy-2-methylpropan-2-yl)sulfonyl)cyclopropyl)methyl)-N-(4-cyanobenzyl)-1-methyl-7-oxo-4,5,6,7-tetrahydro-1H-pyrazolo[3,4-c]pyridine-3-carboxamide], in assay [1] (setting [3]), the half-maximal effective concentration (EC50) was found to be 165 nM. `CC(N)COCC(C)(C)S(=O)(=O)C1(CN2CCc3c(C(=O)NCc4ccc(Cl)cc4)nn(C)c3C2=O)CC1` (single isomer, unassigned) [Example 98, (R)- or (S)-6-((1-((1-(2-Aminopropoxy)-2-methylpropan-2-yl)sulfonyl)cyclopropyl)methyl)-N-(4-chlorobenzyl)-1-methyl-7-oxo-4,5,6,7-tetrahydro-1H-pyrazolo[3,4-c]pyridine-3-carboxamide]: in assay [1] (read-out: CMV-Luc Cellular EC50, NN-NHDF cells, MOI 1, 72 hrs), the EC50 was 8 nM. Turning to `Cn1nc(C(=O)NCc2ccc(C#N)cc2)c2c1C(=O)N(CC1(S(=O)(=O)C(C)(C)COCCO)CC1)CC2` [Example 87, N-(4-Cyanobenzyl)-6-((1-((1-(2-hydroxyethoxy)-2-methylpropan-2-yl)sulfonyl)cyclopropyl)methyl)-1-methyl-7-oxo-4,5,6,7-tetrahydro-1H-pyrazolo[3,4-c]pyridine-3-carboxamide], the EC50 in assay [1] (setting [4]) was 44 nM. With `CC1Cc2c(C(=O)NCc3ccc(C#N)cc3)nn(C)c2C(=O)N1CC1(S(C)(=O)=O)CC1` (single isomer, unassigned) [Example 41, (R)- or (S)-N-(4-cyanobenzyl)-1,5-dimethyl-6-((1-(methylsulfonyl)cyclopropyl)methyl)-7-oxo-4,5,6,7-tetrahydro-1H-pyrazolo[3,4-c]pyridine-3-carboxamide], the half-inhibitory concentration (IC50) in assay [2] came out at 9770 nM.
